Measurements taken from patent US12551465B2 (priority 2020, dated 2026).
Like-named read-outs stand apart in the source and are kept apart here. Marks after values point to notes of the source that are not given here.

Experiments:
[1] = not given; remark: listed apart in the source
healthy volunteers [2] = assay: Electrocardiogram (QTcF, QRS) after repeated dose in healthy volunteers (Example 2)
Procedure: (§3) The electrocardiogram is checked after resting in a supine position in a quiet environment (e.g., without distracting factors) for at least 5 minutes. A sticky pad is attached to the body, and the pad has a thin wire connected to a machine that records measurements of the heart and prints a report. Each time an electrocardiogram is performed, the clinical trial staff performs three electrocardiogram recordings. The time between ECG recordings should not exceed 2 minutes, and the total time should not exceed 10 minutes.
(§4) Primary assessment variables were safety, tolerability and side effects, and the clinical test items were 12-electrode electrocardiogram (including corrected QT interval (calculated by Fridericia formula) [QTc(F)]), QT interval, QRS interval, PR interval, and ventricular rate), vital signs (blood pressure, pulse, body temperature, respiration rate), hypersensitivity (determined by ECG recording and vital signs), clinical laboratory assessment (hematology, blood chemistry, urinalysis, etc.), and adverse events (including serious adverse events).
For participants in Cohort 4, electrocardiogram, pharmacodynamic assessment (echocardiography), etc. were performed on one day before administration, the day of administration (day 1), one day after administration (day 2), day 5 and day 6.
For participants in Cohort 5, electrocardiogram, pharmacodynamic assessment (echocardiography), etc. were performed on one day before administration, the day of administration (day 1), and day 5, day 14 and day 15.
For participants in Cohort 6, electrocardiogram, pharmacodynamic assessment (echocardiography), etc. were performed on one day before administration, the day of administration (day 1), and day 5 and day 14.

healthy volunteers [3] = assay: Electrocardiogram (QTcF, QRS) after single dose in healthy volunteers (Example 1)
Procedure: as §3
(§5) Primary assessment variables were safety, tolerability and side effects, and the clinical trial items were 12-electrode electrocardiogram (including corrected QT interval (calculated by Fridericia formula) [QTc(F)]), QT interval, QRS interval, PR interval, and ventricular rate), vital signs (blood pressure, pulse, body temperature, respiration rate), hypersensitivity (determined by ECG recording and vital signs), clinical laboratory assessment (hematology, blood chemistry, urinalysis, etc.), and adverse events (including serious adverse events).
For participants in Cohorts 1 to 3, electrocardiogram, pharmacodynamic assessment (echocardiography), etc. were performed on one day before administration, the day of administration (day 1), and for two days after administration (48 hours, day 2 and day 3).

patients with HOCM [4] = conditions: Cohort 1 of Example 3, 200 mg once a day for 5 days
Source text: (§1) A total of up to 24 subjects were enrolled in 3 cohorts (8 per cohort). The subjects underwent at least one set of screening, hospital stay, and the end of study (EOS). Based on (1) safety data reviewed by the Safety Review Committee (SRC) and (2) consent to participate, subjects who underwent EOS in one cohort study could participate in another subsequent cohort study after a washout period of at least 7 days after they received the last investigational medicinal product on day 5 of the previous cohort study.
(§2) If subjects participated in another cohort study of Cohort 1 or 2, screening and inclusion/exclusion criteria were re-evaluated after the washout period. […] All subjects in each cohort were reviewed for safety data by the Safety Review Committee (SRC) after EOS before enrollment in the next dose cohort. The maximum duration of the clinical trial was over 15 weeks, including 9 weeks of screening, approximately 3 weeks of hospital stay and 3 weeks of EOS.

patients with HOCM [5] = conditions: for Mean LVOT gradient at rest, actual measured value / Mean LVOT gradient at rest, decrease rate / Mean LVOT gradient with Valsalva maneuver, actual measured value / Mean LVOT gradient with Valsalva maneuver, decrease rate: drug (6) and placebo (2)
Source text: Echocardiography (heart scanning): In a state in which the patient is lying flat, a transducer is placed on the chest of the patient, and high-frequency sound waves (sound waves higher than those that humans can hear) are delivered into the body towards the heart. As the sound wave passes through other parts of the body, a part of the wave bounces back to the transducer, and the image of the heart and blood flow is interpreted by the ultrasound machine. This is to examine the heart's ability to eject blood, as well as heart abnormalities, including the atria, valves and major blood vessels.
as §1, §2
In the case of once-a-day administration, the test drug was administered in the morning of each administration day. In the case of twice-a-day administration, the test drug was administered at 12-hour intervals (in the morning and in the evening) on from day 1 to day 4 and administered only in the morning on day 5.
Subjects who meet the following criteria are considered eligible to participate in the clinical trial: • patients with a maximal left ventricular wall thickness of 15 mm or more (13 mm or more for patients with a family history); • patients with a left ventricular outflow tract (LVOT) gradient of 30 mmHg or more at rest, or an LVOT gradient of 50 mmHg or more after provocation (including provocation such as Valsalva maneuver, standing, post-exercise, etc.); or • patients with a left ventricular ejection fraction (LVEF) of 55% or more. Exclusion Criteria
Secondary assessment variables were pharmacokinetics including Cmax, and the left ventricular outflow track (LVOT) gradient and left ventricular ejection fraction (LVEF) by transthoracic echocardiography (TTE), as wells as blood B-natriuretic peptide (BNP) and troponin levels.
In Example 3 above, the left ventricular outflow track (LVOT) gradient), which is an effect indicator, was measured on day 5 of administration.

healthy volunteers [6] = assay: Clinical safety and tolerability, repeated dose, healthy volunteers (Example 2)
Source text: (§6) In this study, a total of 24 subjects were randomized 1:1:1 to three cohorts and subjected to a total of four stages: screening, treatment period 1, drug withdrawal period, and treatment period 2. The ratio between the drug administration group and the non-drug-administration group (placebo) was 6:2.
as §4

healthy volunteers [7] = assay: Clinical safety and tolerability, single dose, healthy volunteers (Example 1)
Source text: as §6, §5

[8] = Cohort 3 (control): 150 mg oral three times a day, healthy volunteers
[9] = Cohort 3: racemate 150 mg oral three times a day, only S(−)-cibenzoline moiety
[10] = Cohort 6 (control): 150 mg oral three times a day for 14 days, PK on day 14
[11] = Cohort 6: racemate 150 mg three times a day for 14 days, day 14, only S(−)-cibenzoline moiety
[12] = Cohort 4, 200 mg once a day, Day 5, 1.5 hr after administration
[13] = Cohort 4, 200 mg once a day, Day 5, 3 hr after administration
[14] = Cohort 4, 200 mg once a day, Day 5, 8 hr after administration
[15] = Cohort 4, 200 mg once a day, Day 5 before administration
[16] = Cohort 5, 300 mg once a day, Day 14, 1.5 hr after administration
[17] = Cohort 5, 300 mg once a day, Day 14, 3 hr after administration
[18] = Cohort 5, 300 mg once a day, Day 14, 8 hr after administration
[19] = Cohort 5, 300 mg once a day, Day 14 before administration
[20] = Cohort 1, 200 mg single dose, Day 1, 1.5 hr after administration
[21] = Cohort 1, 200 mg single dose, Day 1, 3 hr after administration
[22] = Cohort 1, 200 mg single dose, Day 1, 8 hr after administration
[23] = Cohort 1, 200 mg single dose, Day 1 before administration (baseline)
[24] = Cohort 2, 300 mg single dose, Day 1, 1.5 hr after administration
[25] = Cohort 2, 300 mg single dose, Day 1, 3 hr after administration
[26] = Cohort 2, 300 mg single dose, Day 1, 8 hr after administration
[27] = Cohort 2, 300 mg single dose, Day 1 before administration (baseline)
[28] = HOCM Cohort 1, 200 mg once a day, before administration (day 5), before unblinding: drug (6) and placebo (2)
[29] = HOCM Cohort 1, 200 mg once a day, day 5, 2.5 hours after administration
[30] = HOCM Cohort 1, 200 mg once a day, day 5, 6 hours after administration

O=C(O)CCC(=O)O.c1ccc(C2(c3ccccc3)CC2C2=NCCN2)cc1 (racemic) [racemic cibenzoline succinate]
AUC [8]: 7540.4 ng·h/mL
Cmax [8]: 367.4 ng/mL
Tmax [8]: 1.7 h
AUC (extract of only S(−)-cibenzoline moiety) [9]: (3610.3) ng · hr/mL
Cmax (extract of only S(−)-cibenzoline moiety) [9]: (193.2) ng/mL
Tmax (extract of only S(−)-cibenzoline moiety) [9]: (1.7) h
Cmax [1, 10]: 608.1 ng/mL
Tmax [1, 10]: 1.3 h
AUC (extract of only S(−)-cibenzoline moiety) ([1]; Cohort 6, day 14, only S(−)-cibenzoline moiety, simulation: 8-hour PK data multiplied by 3): (4732.2)* ng · hr/mL
AUC ([1]; Cohort 6: 150 mg three times a day for 14 days, simulation: 8-hour day 14 PK data multiplied by 3): 8876.4* ng · hr/mL
Cmax (extract of only S(−)-cibenzoline moiety) [1, 11]: (334.2) ng/mL
Tmax (extract of only S(−)-cibenzoline moiety) [1, 11]: (1.0) h

c1ccc(C2(c3ccccc3)C[C@@H]2C2=NCCN2)cc1 [S(−)-cibenzoline succinate]
QRS (healthy volunteers [2]; [12]): 100 ms
QTcF (healthy volunteers [2]; [12]): 417 ms
QRS (healthy volunteers [2]; [13]): 102 ms
QTcF (healthy volunteers [2]; [13]): 433 ms
QRS (healthy volunteers [2]; [14]): 96 ms
QTcF (healthy volunteers [2]; [14]): 417 ms
QRS (healthy volunteers [2]; [15]): 92 ms
QTcF (healthy volunteers [2]; [15]): 399 ms
QRS (healthy volunteers [2]; [16]): 124 ms
QTcF (healthy volunteers [2]; [16]): 435 ms
QRS (healthy volunteers [2]; [17]): 130 ms
QTcF (healthy volunteers [2]; [17]): 444 ms
QRS (healthy volunteers [2]; [18]): 110 ms
QTcF (healthy volunteers [2]; [18]): 427 ms
QRS (healthy volunteers [2]; [19]): 106 ms
QTcF (healthy volunteers [2]; [19]): 404 ms
QRS (healthy volunteers [3]; [20]): 102 ms
QTcF (healthy volunteers [3]; [20]): 412 ms
QRS (healthy volunteers [3]; [21]): 107 ms
QTcF (healthy volunteers [3]; [21]): 426 ms
QRS (healthy volunteers [3]; [22]): 99 ms
QTcF (healthy volunteers [3]; [22]): 408 ms
QRS (healthy volunteers [3]; [23]): 92 ms
QTcF (healthy volunteers [3]; [23]): 406 ms
QRS (healthy volunteers [3]; [24]): 107 ms
QTcF (healthy volunteers [3]; [24]): 419 ms
QRS (healthy volunteers [3]; [25]): 116 ms
QTcF (healthy volunteers [3]; [25]): 429 ms
QRS (healthy volunteers [3]; [26]): 107 ms
QTcF (healthy volunteers [3]; [26]): 415 ms
QRS (healthy volunteers [3]; [27]): 101 ms
QTcF (healthy volunteers [3]; [27]): 411 ms
drug-related adverse event (patients with HOCM [4]): no drug-related adverse event occurred
Mean LVOT gradient at rest (patients with HOCM [5]; [28]): 90.18 mmHg
Mean LVOT gradient with Valsalva maneuver (patients with HOCM [5]; [28]): 128.50 mmHg
Mean LVOT gradient at rest, actual measured value (patients with HOCM [5]; [29]): 77.09 mmHg
Mean LVOT gradient at rest, decrease rate (patients with HOCM [5]; [29]): 15%
Mean LVOT gradient with Valsalva maneuver, actual measured value (patients with HOCM [5]; [29]): 98.22 mmHg
Mean LVOT gradient with Valsalva maneuver, decrease rate (patients with HOCM [5]; [29]): 24%
Mean LVOT gradient at rest, actual measured value (patients with HOCM [5]; [30]): 88.07 mmHg
Mean LVOT gradient at rest, decrease rate (patients with HOCM [5]; [30]): 2%
Mean LVOT gradient with Valsalva maneuver, actual measured value (patients with HOCM [5]; [30]): 126.52 mmHg
Mean LVOT gradient with Valsalva maneuver, decrease rate (patients with HOCM [5]; [30]): 2%

c1ccc(C2(c3ccccc3)C[C@@H]2C2=NCCN2)cc1 [S(−)-cibenzoline, S-2-(2,2-diphenylcyclopropyl)-4,5-dihydro-1H-imidazole]
safety and tolerability (healthy volunteers [6]; 200 mg or 300 mg once a day, repeated dose, healthy volunteers): safe and tolerable
serious side effects (healthy volunteers [6]; Cohorts 4 and 5 (200 mg once a day 5 days; 300 mg once a day 14 days) compared to Cohort 6): serious side effects did not occur
safety and tolerability (healthy volunteers [7]; 200 mg or 300 mg once a day, single dose, healthy volunteers): safe and tolerable
serious side effects (healthy volunteers [7]; Cohorts 1 and 2 (200 mg or 300 mg once a day, single dose) compared to Cohort 3, healthy volunteers): no serious side effects occurred
decrease of left ventricular outflow tract (LVOT) gradient after drug administration (patients with HOCM [5]; HOCM patients, Example 3): about 10 mmHg
